Measured values: ChEMBL document CHEMBL1201862, “PubChem BioAssay data set” (2004)
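Protocol summary: plate cells (96-well), add compound at 5 concentrations, incubate 48 h, interpolate endpoints linearly. The concentration for 50% growth inhibition is given as GI50.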 Calls of active or inactive are those of the source. Rule as the data show it: active = GI50 up to about 1.1 µM and inactive = higher.

Assays:
Test in all cases: NCI tumour cell line growth inhibition, 48 h
HL-60 = system: HL-60
HCT-15 = system: HCT-15
MDA-MB-435 = system: MDA-MB-435
NCI/ADR-RES = system: NCI/ADR-RES
IGROV-1 = system: IGROV-1
U-251 = system: U-251
OVCAR-5 = system: OVCAR-5
UACC-257 = system: UACC-257
CAKI-1 = system: CAKI-1
RPMI-8226 = system: RPMI-8226
LOX IMVI = system: LOX IMVI
MDA-N = system: MDA-N
BT-549 = system: BT-549
UO-31 = system: UO-31
SK-MEL-28 = system: SK-MEL-28
CCRF-CEM = system: CCRF-CEM
M14 = system: M14
EKVX = system: EKVX
PC-3 = system: PC-3
HOP-62 = system: HOP-62

Row | Compound | GI50 (HL-60) | GI50 (HCT-15) | GI50 (MDA-MB-435) | GI50 (NCI/ADR-RES) | GI50 (IGROV-1) | GI50 (U-251) | GI50 (OVCAR-5) | GI50 (UACC-257) | GI50 (CAKI-1) | GI50 (RPMI-8226) | GI50 (LOX IMVI) | GI50 (MDA-N) | GI50 (BT-549) | GI50 (UO-31) | GI50 (SK-MEL-28) | GI50 (CCRF-CEM) | GI50 (M14) | GI50 (EKVX) | GI50 (PC-3) | GI50 (HOP-62)
1 | Cc1ccsc1C(=S)Nc1ccc(Cl)c(C(=O)OC(C(C)C)C(C)C)c1 | 11.4 µM (inactive) | 23.6 µM | 17.7 µM (inactive) | 13.6 µM (inactive) | 32.3 µM (inactive) | 24.4 µM (inactive) | 57.9 µM (inactive) | 28.4 µM (inactive) | 19.5 µM (inactive) | 10.6 µM (inactive) | 18 µM (inactive) | 23.6 µM (inactive) | 3.38 µM (inactive) | 13.1 µM (inactive) | 27.1 µM (inactive) | 5.62 µM (inactive) | 17.9 µM (inactive) | 23.2 µM (inactive) | 8.53 µM (inactive) | 
2 | O=C1CC2SC(COCc3ccccc3)(CCN2Cc2ccccc2)C1 (centres undefined) | 18 µM (inactive) | 40.6 µM | 51.6 µM (inactive) | 65 µM (inactive) | > 100 µM (inactive) | 66.8 µM (inactive) | > 100 µM (inactive) | 37.1 µM (inactive) | > 100 µM (inactive) | 30.2 µM (inactive) | 31.8 µM (inactive) | 71.4 µM (inactive) | 51.1 µM (inactive) | 34.7 µM (inactive) | > 100 µM (inactive) | 65 µM (inactive) | 49.1 µM (inactive) | 64.3 µM (inactive) | 35 µM (inactive) | > 100 µM (inactive)
3 | C[C@H](C1CC2(C)OC2(C)C(=O)O1)[C@H]1CC[C@H]2[C@@H]3[C@@H]4O[C@@H]4[C@@]4(O)CC=CC(=O)[C@]4(C)[C@H]3CC[C@]12C (some centres undefined) | > 50 µM (inactive) | > 50 µM | > 50 µM (inactive) | > 50 µM (inactive) | > 50 µM (inactive) | > 50 µM (inactive) | > 50 µM (inactive) | > 50 µM (inactive) | > 50 µM (inactive) | > 50 µM (inactive) | > 50 µM (inactive) | > 50 µM (inactive) | > 50 µM (inactive) | 12.3 µM (inactive) | > 50 µM (inactive) |  | > 50 µM (inactive) | > 50 µM (inactive) | > 50 µM (inactive) | 37.8 µM (inactive)
4 | Cc1ccc(S(=O)(=O)Nn2c(O)c(C#N)c(-c3ccc(N(C)C)cc3)c(C#N)c2=O)cc1 | 28.9 µM (inactive) | > 50 µM | > 50 µM (inactive) | > 50 µM (inactive) | > 50 µM (inactive) | > 50 µM (inactive) | 21.8 µM (inactive) | > 50 µM (inactive) | > 50 µM (inactive) | 9.75 µM (inactive) | > 50 µM (inactive) | > 50 µM (inactive) | > 50 µM (inactive) |  | > 50 µM (inactive) | > 50 µM (inactive) |  | > 50 µM (inactive) | > 50 µM (inactive) | > 50 µM (inactive)
5 | c1csc(-c2cc(-c3ccsc3)cs2)c1 | 74.1 µM (inactive) | > 100 µM | > 100 µM (inactive) | > 100 µM (inactive) | 45.2 µM (inactive) | > 100 µM (inactive) | 63.1 µM (inactive) | > 100 µM (inactive) | > 100 µM (inactive) | > 100 µM (inactive) | > 100 µM (inactive) | > 100 µM (inactive) | > 100 µM (inactive) | 78.2 µM (inactive) | > 100 µM (inactive) | > 100 µM (inactive) | > 100 µM (inactive) | 52.7 µM (inactive) | > 100 µM (inactive) | 29.9 µM (inactive)
6 | CC1CC(C#N)=C2NCCCCN2C1=O (centres undefined) | > 100 µM (inactive) | > 100 µM | > 100 µM (inactive) | > 100 µM (inactive) | > 100 µM (inactive) | > 100 µM (inactive) |  | > 100 µM (inactive) | > 100 µM (inactive) | > 100 µM (inactive) | > 100 µM (inactive) | > 100 µM (inactive) | > 100 µM (inactive) | > 100 µM (inactive) | > 100 µM (inactive) | > 100 µM (inactive) | > 100 µM (inactive) | > 100 µM (inactive) | > 100 µM (inactive) | > 100 µM (inactive)
7 | CC(C)C(=O)CC(Sc1ccc(N)cc1)c1ccccc1 (centres undefined) | 16.2 µM (inactive) | 27.4 µM | 13.6 µM (inactive) | 33.7 µM (inactive) | 44.1 µM (inactive) | 16.6 µM (inactive) | 29.4 µM (inactive) | 33.6 µM (inactive) | 34.3 µM (inactive) | 17.4 µM (inactive) | 16.6 µM (inactive) | 16 µM (inactive) | 33.7 µM (inactive) | 29.2 µM (inactive) | 30.8 µM (inactive) | 17.1 µM (inactive) | 30.4 µM (inactive) |  | 35.4 µM (inactive) | 37.1 µM (inactive)
